This is an account of results in ChEMBL document CHEMBL5042524, “Discovery of Novel Histone Deacetylase 6 (HDAC6) Inhibitors with Enhanced Antitumor Immunity of Anti-PD-L1 Immunotherapy in Melanoma” (J Med Chem, 2022).

The target in one data set is Histone deacetylase 1 (Homo sapiens, UniProt Q13547). Kind of data set: Inhibition of recombinant human HDAC1 expressed in baculovirus expression system using Ac-Leu-Gly-Lys (Ac)-AMC as substrate preincubated for 5 mins followed by substrate addition and measured after 30 mins by fluorescence microtiter plate reader assay.
Histone deacetylase 1, sequence (Q13547 whole entry): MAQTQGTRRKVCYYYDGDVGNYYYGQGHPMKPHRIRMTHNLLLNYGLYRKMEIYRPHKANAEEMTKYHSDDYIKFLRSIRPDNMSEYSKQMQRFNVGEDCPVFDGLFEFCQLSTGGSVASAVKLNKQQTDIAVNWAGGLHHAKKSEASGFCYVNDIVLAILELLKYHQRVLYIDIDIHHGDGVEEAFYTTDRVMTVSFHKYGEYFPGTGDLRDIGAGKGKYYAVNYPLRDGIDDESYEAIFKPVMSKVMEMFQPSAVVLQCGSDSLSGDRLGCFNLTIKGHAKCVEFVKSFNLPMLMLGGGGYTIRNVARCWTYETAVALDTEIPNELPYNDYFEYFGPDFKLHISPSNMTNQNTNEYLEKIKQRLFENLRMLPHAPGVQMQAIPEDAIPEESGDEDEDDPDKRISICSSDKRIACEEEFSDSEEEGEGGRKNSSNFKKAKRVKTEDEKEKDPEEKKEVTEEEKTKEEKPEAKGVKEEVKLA
For another data set, the target named is Histone deacetylase 3 (Homo sapiens, UniProt O15379). Description: Inhibition of recombinant human His-tagged HDAC3 expressed in baculovirus insect cells using Ac-Leu-Gly-Lys (Ac)-AMC as substrate preincubated for 5 mins followed by substrate addition and measured after 30 mins by fluorescence microtiter plate reader assay.
Histone deacetylase 3, sequence (O15379 whole entry): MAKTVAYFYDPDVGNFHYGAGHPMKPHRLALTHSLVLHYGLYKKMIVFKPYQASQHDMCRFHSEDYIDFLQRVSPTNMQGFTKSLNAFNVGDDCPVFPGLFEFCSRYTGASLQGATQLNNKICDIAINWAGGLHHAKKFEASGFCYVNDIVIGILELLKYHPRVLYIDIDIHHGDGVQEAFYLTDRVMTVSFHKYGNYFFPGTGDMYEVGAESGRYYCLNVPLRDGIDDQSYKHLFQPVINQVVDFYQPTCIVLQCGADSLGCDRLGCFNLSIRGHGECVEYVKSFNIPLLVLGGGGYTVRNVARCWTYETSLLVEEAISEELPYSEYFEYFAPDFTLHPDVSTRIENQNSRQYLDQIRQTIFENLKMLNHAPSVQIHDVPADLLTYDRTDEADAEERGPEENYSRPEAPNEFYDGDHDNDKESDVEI
For a further data set, the target named is T1, Histone deacetylase 8 (Homo sapiens, UniProt Q9BY41).
T1 sequence (Q9BY41 whole entry): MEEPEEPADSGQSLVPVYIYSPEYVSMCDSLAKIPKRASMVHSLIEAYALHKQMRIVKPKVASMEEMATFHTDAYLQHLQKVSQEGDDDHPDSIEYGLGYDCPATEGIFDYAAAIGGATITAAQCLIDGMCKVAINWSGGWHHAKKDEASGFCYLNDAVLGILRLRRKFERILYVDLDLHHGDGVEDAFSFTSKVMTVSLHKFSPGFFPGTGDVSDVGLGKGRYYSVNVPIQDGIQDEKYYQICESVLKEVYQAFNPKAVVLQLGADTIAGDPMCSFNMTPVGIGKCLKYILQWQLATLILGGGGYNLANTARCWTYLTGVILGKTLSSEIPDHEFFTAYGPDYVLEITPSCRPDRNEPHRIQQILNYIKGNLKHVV
Kind of data set: Inhibition of full length recombinant human C-terminal His tagged HDAC8 expressed in baculovirus infected Sf9 insect cells using Ac-Leu-GlyLys (Tfa)-AMC as substrate preincubated for 5 mins followed by substrate addition and measured after 30 mins by fluorescence microtiter plate reader assay.

The next data set has as its system HCT-116. Description: cells. The format is functional, cell-based. The settings on record: Homo sapiens, HCT-116, 48 h.
The test system of a further data set is A549. Kind of data set: cells. In kind it is functional, cell-based. To be noted: Homo sapiens, A549, 48 h.
Another data set relates to MCF7. Description: cells. In kind it is functional, cell-based. The settings on record: Homo sapiens, MCF7, 48 h.
The nature of data set [1]: Cytotoxicity against human Jurkat cells assessed as reduction in cell viability incubated for 72 hrs by CCK-8 assay. For orientation: Tetrazolium dyes change colour on reduction, which living cells bring about.
The subject of data set [2] is B16-F10. Kind of data set: cells. To be noted: Mus musculus, B16-F10, 48 h. In kind it is functional, cell-based.
Description: Antiproliferative activity against mouse B16-F10 cells assessed as inhibition of cell proliferation measured after 48 hrs by MTT assay
Data set [3] can be described thus: Antiproliferative activity against human YCC-11 cells assessed as cell growth inhibition. In kind it is functional, cell-based.
A short description of data set [4]: Antiproliferative activity against human YCC3/7 cells assessed as cell growth inhibition. The format is functional, cell-based.
Data set [5] can be described thus: Aqueous solubility of the compound incubated for 24 hrs by HPLC based shake-flask method. To be noted: buffer. The format is physicochemical.
For data set [6], the system named is B16-F10. Kind of data set: Antitumor activity against mouse B16-F10 cells allografted in C57BL/6 mouse assessed as tumor growth inhibition at 50 mg/kg, ip administered daily for 14 days by caliper method (Rvb= 63%). In kind it is functional. To be noted: 336 h, time 14 day, read-out: TGI.
Data set [7] has as its system B16-F10. Description: Antitumour activity against mouse B16-F10 cells allografted in C57BL/6 mouse model assessed as increase in acetylated alpha tubulin expression level in tumor at 50 mg/kg, ip measured after 14 days by […] based microscopic analysis (Rvb =1.77%). The format is functional. The settings on record: time 14 day.
Data set [8] is described as follows: Toxicity in C57BL/6 mouse allografted with B16-F10 cells assessed as body weight loss at 50 mg/kg, ip administered daily for 14 days. The format is organism-based. The settings on record: in vivo, 336 h, time 14 day.
The test system of data set [9] is B16-F10. Description: Antitumour activity against mouse B16-F10 cells allografted in C57BL/6 mouse model assessed as decrease in PD-L1 expression level by Western blot analysis relative to control. In kind it is functional. Set-up: scale not given: the % may be the effect or the level left.
The subject of data set [10] is B16-F10. Kind of data set: Potentiation of antitumor activity against mouse B16-F10 cells allografted in C57BL/6 mouse model assessed as decrease in PD-L1 expression level in presence of 2-(5-chloro-2-(3-cyanobenzyloxy)-4-((2-methylbiphenyl-3-yl)methoxy)benzylamino)-2-methylpropanoic acid by Western blot analysis relative to control. In kind it is functional. Set-up: scale not given: the % may be the effect or the level left. A general note: In western blotting, separated proteins are transferred to a membrane and probed.

Data set [11] relates to B16-F10. Description: Antitumour activity against mouse B16-F10 cells allografted in C57BL/6 mouse model assessed as increase in CD3 positive/CD4 positive cells in tumor at 10 mg/kg, ip administered for 14 days by flow cytometry analysis (Rvb= 8.73%). In kind it is functional. To be noted: time 14 day. Background: Flow cytometry measures light scatter and fluorescence of single cells or particles in a stream.

The test system of data set [12] is B16-F10. Kind of data set: Antitumour activity against mouse B16-F10 cells allografted in C57BL/6 mouse model assessed as increase in CD3 positive/CD8 positive cells in tumor at 10 mg/kg, ip administered for 14 days by flow cytometry analysis (Rvb= 6.65%). In kind it is functional. To be noted: time 14 day.
The nature of data set [13]: Toxicity in C57BL/6 mouse allografted with B16-F10 cells assessed as body weight loss at 10 mg/kg, ip administered daily for 14 days. The format is organism-based. To be noted: in vivo, 336 h, time 14 day.
The target in the next data set is Histone deacetylase. Description: Inhibition of HDAC in human HeLa nuclear extracts using fluorometric substrate incubated for 30 mins by fluorescence plate reader analysis. The format is cell-based.
For data set [14], the target named is T2, Protein deacetylase HDAC6 (Homo sapiens, UniProt Q9UBN7).
T2 sequence (Q9UBN7 whole entry): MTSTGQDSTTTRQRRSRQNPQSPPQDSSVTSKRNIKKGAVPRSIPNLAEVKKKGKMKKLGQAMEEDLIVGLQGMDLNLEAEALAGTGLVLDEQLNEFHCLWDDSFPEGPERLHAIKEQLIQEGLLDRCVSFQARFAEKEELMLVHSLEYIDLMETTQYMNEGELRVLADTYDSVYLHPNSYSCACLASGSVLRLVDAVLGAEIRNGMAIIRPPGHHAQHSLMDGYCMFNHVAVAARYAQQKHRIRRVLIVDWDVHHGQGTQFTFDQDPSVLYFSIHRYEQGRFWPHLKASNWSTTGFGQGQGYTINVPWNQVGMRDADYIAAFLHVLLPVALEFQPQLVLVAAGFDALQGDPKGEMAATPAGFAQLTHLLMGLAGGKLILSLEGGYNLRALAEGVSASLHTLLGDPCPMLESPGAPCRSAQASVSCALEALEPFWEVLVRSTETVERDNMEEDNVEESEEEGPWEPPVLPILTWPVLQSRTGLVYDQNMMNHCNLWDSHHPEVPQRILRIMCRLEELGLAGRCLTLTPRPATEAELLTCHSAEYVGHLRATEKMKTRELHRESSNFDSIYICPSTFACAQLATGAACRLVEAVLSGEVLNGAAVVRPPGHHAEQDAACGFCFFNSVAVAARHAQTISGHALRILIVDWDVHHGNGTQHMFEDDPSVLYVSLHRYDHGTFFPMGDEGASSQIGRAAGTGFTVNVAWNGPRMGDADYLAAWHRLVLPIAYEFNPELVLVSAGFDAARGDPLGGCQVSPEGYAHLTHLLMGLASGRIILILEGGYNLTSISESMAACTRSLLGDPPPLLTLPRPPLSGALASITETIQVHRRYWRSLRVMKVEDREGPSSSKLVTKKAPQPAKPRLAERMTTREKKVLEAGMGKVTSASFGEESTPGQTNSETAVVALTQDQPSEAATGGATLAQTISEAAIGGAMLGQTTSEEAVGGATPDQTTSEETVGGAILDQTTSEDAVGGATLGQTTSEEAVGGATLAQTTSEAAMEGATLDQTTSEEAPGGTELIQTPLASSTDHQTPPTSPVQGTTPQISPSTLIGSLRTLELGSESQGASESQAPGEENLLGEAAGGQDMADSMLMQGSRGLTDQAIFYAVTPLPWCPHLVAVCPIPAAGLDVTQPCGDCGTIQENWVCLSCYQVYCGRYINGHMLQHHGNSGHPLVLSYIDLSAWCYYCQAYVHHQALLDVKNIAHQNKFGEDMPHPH
Description: Inhibition of recombinant human N-terminal GST tagged HDAC6 expressed in baculovirus infected Sf9 insect cells using Ac-Leu-Gly-Lys (Ac)-AMC as substrate preincubated for 5 mins followed by substrate addition and measured after 30 mins by fluorescence microtiter plate reader assay.

pIC50: −log10 of the molar value. Values after ≈ are worked out from the molar mass of the structure shown.

Description for A549: Antiproliferative activity against human A549 cells assessed as inhibition of cell proliferation measured after 48 hrs by MTT assay
Description for HCT-116: Antiproliferative activity against human HCT-116 cells assessed as inhibition of cell proliferation measured after 48 hrs by MTT assay
Description for MCF7: Antiproliferative activity against human MCF7 cells assessed as inhibition of cell proliferation measured after 48 hrs by MTT assay

By pIC50 is commonly meant the IC50 on a negative log10 scale, so that one unit is a factor of ten. For orientation: IC50 means the concentration that gives 50% inhibition. Usually solubility (thermodynamic) stands for the concentration in solution at equilibrium with solid. Consider `CC(C)(C)OC(=O)Nc1ccc(-c2cc(C(=O)NCCCCCCC(=O)NO)no2)cc1`, for which the negative-log IC50 (pIC50) was 6.59 at Histone deacetylase 1; 6.12 on Histone deacetylase 3; 5.21 on Histone deacetylase 8; 5.83 with HCT-116; < 5.00 in the data set with A549; 5.55 in the data set on MCF7. In addition, the negative logarithm of the IC50 (pIC50) in the data set with B16-F10 [2] is 5.03; in data set [3] it was 5.39; in [4], 5.20. In data set [1], the 50% inhibitory concentration (IC50) at 72 h is 0.61 µM. The thermodynamic solubility at 24 h in data set [5] came to 16.1 µg/mL (≈ 36 µM). For the same compound, in the data set with B16-F10 [6], the inhibition in vivo at 50 mg/kg is 52%. The Activity is on record as 37.9% in the data set with B16-F10 [7] and “Non-Toxic” in [8].
Regarding `Cc1c(COc2cc(OCc3cccc(C#N)c3)c(CNC(C)(C)C(=O)O)cc2Cl)cccc1-c1ccccc1`, the Activity is recorded as 45% in the data set on B16-F10 [9]; 70% in the data set with B16-F10 [10]; 15.4% in the data set on B16-F10 [11]; 11.2% with B16-F10 [12]; “Non-Toxic” in data set [13].
`COc1cc(-c2ncc(/C=C/C(=O)Nc3ccccc3N)s2)cc(OC)c1OC` showed an IC50 against Histone deacetylase of 0.08 µM. Besides, the pIC50 was 5.01 on Histone deacetylase 1; 5.53 on Histone deacetylase 3; 5.03 in data set [14]; 4.85 at Histone deacetylase 8; 5.78 in the data set on HCT-116; < 5.00 in the data set on A549. For the same compound, the pIC50 in the data set with MCF7 is 5.60; with B16-F10 [2] it was 5.12; in data set [3], 5.78; in data set [4] it was 5.52. Also, the IC50 at 72 h in data set [1] was determined as 0.58 µM.
`COc1cccc(-c2ncc(C(=O)NCCCCCCC(=O)NO)s2)c1` returned an IC50 against Histone deacetylase of 0.44 µM. Besides, the pIC50 was 5.41 on Histone deacetylase 1; 5.03 on Histone deacetylase 3; 6.23 in data set [14]; 4.82 on Histone deacetylase 8; 6.03 in the data set with HCT-116; 5.22 with A549. Further, the negative logarithm of the IC50 (pIC50) in the data set on MCF7 is 5.72; in the data set on B16-F10 [2], 5.45; in data set [3] it was 5.89; in [4], 5.81. Besides, the IC50 at 72 h in data set [1] was determined as 0.33 µM.
`COc1ccccc1-c1ncc(C(=O)NCCCCCCC(=O)NO)s1` displayed an IC50 against Histone deacetylase of 0.27 µM. The pIC50 was 5.29 on Histone deacetylase 1; 5.19 at Histone deacetylase 3; 6.19 in data set [14]; 4.99 at Histone deacetylase 8; 6.04 with HCT-116; 5.30 with A549. For the same compound, the pIC50 in the data set on MCF7 is 5.71; in the data set on B16-F10 [2], < 5.00; in data set [3] it was 5.57; in data set [4], 5.18. Moreover, the 50% inhibitory concentration (IC50) at 72 h in [1] came to 0.35 µM.
At Histone deacetylase, `COc1ccc(-c2ncc(/C=C/C(=O)Nc3ccccc3N)s2)cc1OC` had an IC50 of 0.53 µM. In addition, the pIC50 at Histone deacetylase 1 is 4.98; on Histone deacetylase 3 it was 5.65; in [14], 5.06; at Histone deacetylase 8, 4.94; with HCT-116, 5.74; in the data set with A549 it was 5.28. Further, the negative-log IC50 (pIC50) is 5.52 with MCF7, 5.20 with B16-F10 [2], 5.34 in [3] and 5.20 in [4]. In addition, the IC50 at 72 h in data set [1] is 0.34 µM.
